According to US10512700B2, “Radiohalide-labeled targeted diagnostics and therapeutics” (Memorial Sloan Kettering Cancer Center, priority 2014, dated 2019):
Like-named read-outs stand apart in the source and are kept apart here.

Key:
[1] = Plasma protein binding, Rapid Equilibrium Dialysis; assay type: in vitro ADME, mouse; set-up: fraction unbound at 4 h: dose or concentration left out as unconfirmed; settings: 4 h at 37° C.; for Plasma protein binding: 500 μM in mouse serum; for % plasma free fraction: 10 μM in mouse serum
Description: The plasma protein fraction was determined using the Rapid Equilibrium Dialysis Device System (LifeTechnologies, Grand Island, N.Y.) according to the manufacturer's protocol.
For each of the iodinated compounds, membrane dialysis was performed with 10 μM of the compound in mouse serum (500 μL) on one side of the membrane and PBS (750 μL) on the other side. The system was sealed with parafilm and incubated for 4 h at 37° C. on an orbital shaker set to 250 rpm. Thereafter, 400 μL of solution was taken from both sides, and samples were treated twice with an equal amount of AcN and vortexed to remove protein before HPLC analysis. After injection (100 μL), the compound peaks from each sample were then integrated, and the protein bound fraction was determined as % bound=[1−(Concentration buffer chamber/Concentration plasma chamber)]×100. The data was analyzed using Prism 6.0c (GraphPad Software, La Jolla, Calif.).
The system was sealed with parafilm and incubated for 4 h at 37° C. on an orbital shaker set to 100 rpm. Thereafter, 50 μL of solution was taken from both sides, and samples were treated with 300 μL of precipitation buffer (90/10 acetonitrile/water with 0.1% formic acid) and vortexed to remove protein before HPLC analysis. […] The data was analyzed using Prism 6.0c (GraphPad Software, La Jolla, Calif.).

U251 MG cells = experiment: In vitro blocking study, competitive inhibition of PARP1i-FL uptake; assay type: cell-based, human; settings: 5 μM (10-fold excess) with PARP1i-FL 500 nM, 30 minutes
Description: (§1) U251 MG or U373 MG (1×10^4 cells per well) cells were seeded into 12 wells each on a 96-well plate and cultured for 24 hours. […] Following incubation, cells were washed twice with media and twice with PBS and imaged with a Zeiss LSM 5Live confocal microscope (images not shown). Fluorescence intensity was then quantified from the images using ImageJ 1.47 u processing software (see FIG. 3).

U373 MG cells = experiment: as above; assay type: cell-based, human; settings: 5 μM (10-fold excess) with PARP1i-FL 500 nM, 30 minutes
Description: as §1

[2] = reported for olaparib; cited from earlier work
[3] = Chromatographic Hydrophobicity Index (CHI) and log PCHI determination; assay type: physicochemical; settings: for chromatographic logP: reverse phase HPLC, read-out: logPCHI
Description: Chromatographic Hydrophobicity Index (CHI) was determined according to the procedures reported in K. Valko et al, “Chromatographic Hydrophobicity Index by Fast-Gradient RP-HPLC: A High-Throughput Alternative to log P/log D”, Anal. Chem. 1997, 69:2022-29, incorporated by reference herein in its entirety. Briefly, a series of standards with known CHIs were analyzed with reverse phase HPLC. Retention times of the standards along with their known CHIs were plotted with Prism 6.0c software (GraphPad, La Jolla, Calif.). A line was fit to the data to create a calibration curve, which was then used to calculate the CHI of the test chemical entity based on the HPLC retention time.
The log PCHI value was determined according to K. Valko, 1997.

PARP1 = target: T1, PARP1 (Homo sapiens, UniProt P09874); experiment: IC50 determination, Universal PARP Colorimetric Assay Kit; assay type: biochemical; settings: Table 2, measured against PARP1
T1 construct: purchased Trevigen
Description: Inhibition of PARP1 was measured using the Universal PARP Colorimetric Assay Kit (Trevigen®, Gaithersburg, Md.). IC50 values were calculated using Prism 6.0c software (GraphPad, La Jolla, Calif.).
All experiments were carried out in triplicate.

T1 sequence (P09874 whole entry, species assumed): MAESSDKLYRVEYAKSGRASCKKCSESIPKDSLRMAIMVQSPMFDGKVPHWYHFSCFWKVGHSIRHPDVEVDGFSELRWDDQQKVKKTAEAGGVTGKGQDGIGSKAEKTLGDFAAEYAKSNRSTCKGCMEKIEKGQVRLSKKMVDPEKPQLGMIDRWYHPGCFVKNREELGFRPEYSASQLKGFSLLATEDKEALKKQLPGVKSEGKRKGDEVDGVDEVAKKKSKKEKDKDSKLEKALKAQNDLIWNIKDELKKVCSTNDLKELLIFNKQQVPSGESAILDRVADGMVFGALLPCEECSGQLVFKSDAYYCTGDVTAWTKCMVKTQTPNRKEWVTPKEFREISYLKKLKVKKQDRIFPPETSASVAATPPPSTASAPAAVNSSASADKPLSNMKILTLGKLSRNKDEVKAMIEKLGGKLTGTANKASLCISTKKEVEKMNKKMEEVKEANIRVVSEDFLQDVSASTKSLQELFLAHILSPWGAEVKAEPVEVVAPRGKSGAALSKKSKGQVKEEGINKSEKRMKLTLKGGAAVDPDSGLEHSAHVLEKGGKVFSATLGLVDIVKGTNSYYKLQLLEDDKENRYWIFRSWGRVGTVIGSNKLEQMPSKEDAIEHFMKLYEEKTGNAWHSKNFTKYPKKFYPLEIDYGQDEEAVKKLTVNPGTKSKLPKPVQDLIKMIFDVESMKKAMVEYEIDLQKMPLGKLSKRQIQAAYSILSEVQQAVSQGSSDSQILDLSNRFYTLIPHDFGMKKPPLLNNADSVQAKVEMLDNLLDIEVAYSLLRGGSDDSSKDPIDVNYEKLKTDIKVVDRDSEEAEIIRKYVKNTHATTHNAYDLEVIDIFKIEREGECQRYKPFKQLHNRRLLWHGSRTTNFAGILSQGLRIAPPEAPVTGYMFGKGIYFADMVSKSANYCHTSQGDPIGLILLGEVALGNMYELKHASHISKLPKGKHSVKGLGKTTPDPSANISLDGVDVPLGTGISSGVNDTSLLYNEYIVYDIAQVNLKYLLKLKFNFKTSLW

Structure (SMILES) | CHI ([3]; Table 2) | chromatographic logP ([3]; Table 2) | % plasma free fraction [1] | IC50 (PARP1) | also measured
O=C(c1cc(Cc2n[nH]c(=O)c3ccccc23)ccc1F)N1CCN(C(=O)C2CC2)CC1 [olaparib, 4-[3-(4-cyclopropanecarbonylpiperazine-1-carbonyl)-4-fluorobenzyl]-2H-phthalazin-1-one, reference compound] |  |  |  |  | Plasma protein binding [1]: 65%; reduction of fluorescence intensity in the nucleus (U251 MG cells): 69.6%±22.3%; reduction of fluorescence intensity in the nucleus (U373 MG cells): 71.2%±20.0%; CHI [2]: 34.1; logPCHI [2]: 0.8
O=C(c1ccc(F)cc1)N1CCN(C(=O)c2cc(Cc3n[nH]c(=O)c4ccccc34)ccc2F)CC1 [c-2 (^19F)] |  |  |  |  | CHI ([3]; Table 3): 57.5; logPCHI ([3]; Table 3): 2.15±0.41; chromatographic logP ([3]; Table 3): 2.15 ± 0.41; Plasma protein binding [1]: 63.9 ± 12.6%; fraction unbound at 4 h ([1]; mouse, mouse serum): 0.36; reduction of fluorescence intensity in the nucleus (U251 MG cells): 80.0%±10.8%; reduction of fluorescence intensity in the nucleus (U373 MG cells): 78.8%±10.4%
O=C(Cc1cccc(I)c1)N1CCN(C(=O)c2cc(Cc3n[nH]c(=O)c4ccccc34)ccc2F)CC1 [c-3 (^127I), 4-(4-fluoro-3-(4-(2-(3-iodophenyl)acetyl)piperazine-1-carbonyl)-benzyl)phthalazin-1(2H)-one] | 66.7 | 2.7 | 7.0 ± 0.1% | 34 ± 3 nM | 
O=C(c1ccc(I)cc1)N1CCN(C(=O)c2cc(Cc3n[nH]c(=O)c4ccccc34)ccc2F)CC1 [c-2 (^127I), 4-(4-fluoro-3-(4-(4-iodobenzoyl)piperazine-1-carbonyl)benzyl)-phthalazin-1(2H)-one] |  |  | 11.5 ± 0.1% |  | 
O=C(CCc1cccc(I)c1)N1CCN(C(=O)c2cc(Cc3n[nH]c(=O)c4ccccc34)ccc2F)CC1 [c-5 (^127I), 4-(4-fluoro-3-(4-(3-(3-iodophenyl)propanoyl)piperazine-1-carbonyl)benzyl)phthalazin-1(2H)-one] | 71.6 | 3 | 7.8 ± 1.4% | 107 ± 4 nM | 
O=C(c1cccc(I)c1)N1CCN(C(=O)c2cc(Cc3n[nH]c(=O)c4ccccc34)ccc2F)CC1 [c-1 (^127I), 4-(4-fluoro-3-(4-(3-iodobenzoyl)piperazine-1-carbonyl)benzyl)-phthalazin-1(2H)-one] |  |  | 9.6 ± 1.5% |  | 
O=C(CCc1ccc(I)cc1)N1CCN(C(=O)c2cc(Cc3n[nH]c(=O)c4ccccc34)ccc2F)CC1 [c-6 (^127I), 4-(4-fluoro-3-(4-(3-(4-iodophenyl)propanoyl)piperazine-1-carbonyl)benzyl) phthalazin-1(2H)-one] | 71.6 | 3 | 4.7 ± 0.5% | 47 ± 5 nM | 
O=C(Cc1ccc(I)cc1)N1CCN(C(=O)c2cc(Cc3n[nH]c(=O)c4ccccc34)ccc2F)CC1 [c-4 (^127I), 4-(4-fluoro-3-(4-(2-(4-iodophenyl)acetyl)piperazine-1-carbonyl)-benzyl)phthalazin-1(2H)-one] | 66.7 | 2.7 | 5.0 ± 0.3% | 74 ± 5 nM | 
